The values below come from ChEMBL document CHEMBL1148593, “Matrix metalloproteinase target family landscape: a chemometrical approach to ligand selectivity based on protein binding site analysis” (J Med Chem, 2006).

In assay [1] the target is T1, Matrilysin (Homo sapiens, UniProt P09237).
T1 sequence (P09237 whole entry): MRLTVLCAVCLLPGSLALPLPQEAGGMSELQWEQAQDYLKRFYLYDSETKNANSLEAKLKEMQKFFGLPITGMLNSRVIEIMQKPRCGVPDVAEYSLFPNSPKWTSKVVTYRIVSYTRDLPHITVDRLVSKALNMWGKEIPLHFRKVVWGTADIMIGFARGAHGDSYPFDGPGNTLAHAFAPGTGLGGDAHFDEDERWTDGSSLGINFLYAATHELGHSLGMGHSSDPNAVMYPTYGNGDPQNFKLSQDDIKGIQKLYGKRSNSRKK
Kind of assay: Binding affinity to MMP7.

The target in assay [2] is 72 kDa type IV collagenase (Homo sapiens, UniProt P08253). Description: Binding affinity to MMP2.
In assay [3] the target is Matrix metalloproteinase-9 (Homo sapiens, UniProt P14780). Description: Binding affinity to MMP9.
The target of assay [4] is T2, Interstitial collagenase (Homo sapiens, UniProt P03956).
T2 sequence (P03956 whole entry): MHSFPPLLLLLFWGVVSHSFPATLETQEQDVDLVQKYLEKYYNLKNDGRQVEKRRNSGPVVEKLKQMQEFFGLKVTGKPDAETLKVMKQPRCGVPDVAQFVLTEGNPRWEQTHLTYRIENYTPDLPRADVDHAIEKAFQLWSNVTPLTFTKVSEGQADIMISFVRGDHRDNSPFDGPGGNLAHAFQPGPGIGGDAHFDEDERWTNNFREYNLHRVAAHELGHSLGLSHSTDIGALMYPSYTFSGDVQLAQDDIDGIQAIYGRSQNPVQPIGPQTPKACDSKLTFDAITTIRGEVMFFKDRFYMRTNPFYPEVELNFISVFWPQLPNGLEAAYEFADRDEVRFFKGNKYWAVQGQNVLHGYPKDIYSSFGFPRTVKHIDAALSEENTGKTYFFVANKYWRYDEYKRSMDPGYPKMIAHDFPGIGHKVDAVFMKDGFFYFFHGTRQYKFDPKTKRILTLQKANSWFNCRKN
Kind of assay: Binding affinity to MMP1.

For assay [5], the target named is Stromelysin-1 (Homo sapiens, UniProt P08254). Description: Binding affinity to MMP3.
The target of assay [6] is T3, Matrilysin (Homo sapiens) (UniProt P09237).
T3 sequence (whole entry): T1 sequence (P09237 whole entry)
Description: Inhibition of MMP7 at 2 uM.

Assay [7] concerns the target Neutrophil collagenase (Homo sapiens, UniProt P22894). Kind of assay: Binding affinity to MMP8.
Assay [8] has as its target T4, Stromelysin-3 (Homo sapiens, UniProt P24347).
T4 sequence (P24347 whole entry): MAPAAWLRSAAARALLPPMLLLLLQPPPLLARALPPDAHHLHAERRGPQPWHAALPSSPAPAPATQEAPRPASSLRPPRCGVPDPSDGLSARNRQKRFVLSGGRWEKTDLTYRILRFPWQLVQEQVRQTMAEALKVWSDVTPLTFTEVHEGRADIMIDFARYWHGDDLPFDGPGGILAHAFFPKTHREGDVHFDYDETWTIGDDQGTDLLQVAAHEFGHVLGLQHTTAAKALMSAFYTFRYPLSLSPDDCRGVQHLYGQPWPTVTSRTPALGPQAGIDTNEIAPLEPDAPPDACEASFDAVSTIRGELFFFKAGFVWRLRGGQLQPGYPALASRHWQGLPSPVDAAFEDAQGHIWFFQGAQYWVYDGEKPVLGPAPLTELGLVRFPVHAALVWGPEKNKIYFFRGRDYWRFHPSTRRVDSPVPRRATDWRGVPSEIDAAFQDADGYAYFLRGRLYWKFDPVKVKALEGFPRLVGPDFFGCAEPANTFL
Kind of assay: Binding affinity to MMP11.

Assay [9] addresses T5, Interstitial collagenase (Homo sapiens) (UniProt P03956).
T5 sequence (whole entry): T2 sequence (P03956 whole entry)
Description: Inhibition of MMP1 at 2 uM.

SMILES strings stand for the structures.

Sequence of Neutrophil collagenase (P22894 whole entry): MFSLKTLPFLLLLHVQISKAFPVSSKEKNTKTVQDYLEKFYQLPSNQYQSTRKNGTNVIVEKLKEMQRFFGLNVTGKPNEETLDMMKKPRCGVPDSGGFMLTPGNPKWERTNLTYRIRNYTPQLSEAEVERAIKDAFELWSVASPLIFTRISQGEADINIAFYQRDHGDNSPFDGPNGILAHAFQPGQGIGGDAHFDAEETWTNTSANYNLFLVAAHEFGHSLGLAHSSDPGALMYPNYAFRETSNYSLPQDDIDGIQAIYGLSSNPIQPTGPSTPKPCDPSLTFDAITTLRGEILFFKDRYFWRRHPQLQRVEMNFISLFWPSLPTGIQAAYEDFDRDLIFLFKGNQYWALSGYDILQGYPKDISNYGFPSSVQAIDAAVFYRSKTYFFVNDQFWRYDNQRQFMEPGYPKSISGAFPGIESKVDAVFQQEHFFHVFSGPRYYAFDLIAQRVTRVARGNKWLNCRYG
Sequence of Stromelysin-1 (P08254 whole entry): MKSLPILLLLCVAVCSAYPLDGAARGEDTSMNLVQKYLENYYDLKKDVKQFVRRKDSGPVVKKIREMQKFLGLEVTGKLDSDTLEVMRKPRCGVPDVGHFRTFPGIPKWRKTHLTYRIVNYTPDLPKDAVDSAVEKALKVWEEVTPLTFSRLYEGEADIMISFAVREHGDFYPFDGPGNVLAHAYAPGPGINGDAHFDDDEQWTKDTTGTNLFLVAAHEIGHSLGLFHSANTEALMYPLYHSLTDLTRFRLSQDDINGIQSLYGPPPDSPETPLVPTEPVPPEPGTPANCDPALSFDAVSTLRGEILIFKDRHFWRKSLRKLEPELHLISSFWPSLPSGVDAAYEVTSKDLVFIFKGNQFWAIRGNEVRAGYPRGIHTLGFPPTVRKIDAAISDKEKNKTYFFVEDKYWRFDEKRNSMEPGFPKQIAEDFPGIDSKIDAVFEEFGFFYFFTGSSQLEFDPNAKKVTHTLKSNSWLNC
Sequence of 72 kDa type IV collagenase (P08253 whole entry): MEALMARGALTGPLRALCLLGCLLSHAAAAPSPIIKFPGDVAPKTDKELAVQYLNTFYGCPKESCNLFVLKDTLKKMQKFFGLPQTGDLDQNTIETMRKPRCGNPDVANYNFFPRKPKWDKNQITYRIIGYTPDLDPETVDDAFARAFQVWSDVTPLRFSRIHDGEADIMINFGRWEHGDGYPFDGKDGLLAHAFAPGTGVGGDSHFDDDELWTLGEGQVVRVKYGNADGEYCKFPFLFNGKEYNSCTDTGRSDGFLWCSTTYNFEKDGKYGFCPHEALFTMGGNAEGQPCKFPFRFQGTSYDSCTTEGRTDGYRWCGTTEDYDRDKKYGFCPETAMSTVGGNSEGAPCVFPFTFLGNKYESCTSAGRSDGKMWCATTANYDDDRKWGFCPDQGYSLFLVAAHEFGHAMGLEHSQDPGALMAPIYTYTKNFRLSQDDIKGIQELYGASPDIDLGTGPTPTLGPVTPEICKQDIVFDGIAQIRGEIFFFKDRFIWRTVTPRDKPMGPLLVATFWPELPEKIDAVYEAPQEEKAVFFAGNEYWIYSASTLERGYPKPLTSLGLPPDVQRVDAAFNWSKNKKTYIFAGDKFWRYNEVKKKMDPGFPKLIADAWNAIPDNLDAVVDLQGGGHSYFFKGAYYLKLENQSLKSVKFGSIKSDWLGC
Sequence of Matrix metalloproteinase-9 (P14780 whole entry): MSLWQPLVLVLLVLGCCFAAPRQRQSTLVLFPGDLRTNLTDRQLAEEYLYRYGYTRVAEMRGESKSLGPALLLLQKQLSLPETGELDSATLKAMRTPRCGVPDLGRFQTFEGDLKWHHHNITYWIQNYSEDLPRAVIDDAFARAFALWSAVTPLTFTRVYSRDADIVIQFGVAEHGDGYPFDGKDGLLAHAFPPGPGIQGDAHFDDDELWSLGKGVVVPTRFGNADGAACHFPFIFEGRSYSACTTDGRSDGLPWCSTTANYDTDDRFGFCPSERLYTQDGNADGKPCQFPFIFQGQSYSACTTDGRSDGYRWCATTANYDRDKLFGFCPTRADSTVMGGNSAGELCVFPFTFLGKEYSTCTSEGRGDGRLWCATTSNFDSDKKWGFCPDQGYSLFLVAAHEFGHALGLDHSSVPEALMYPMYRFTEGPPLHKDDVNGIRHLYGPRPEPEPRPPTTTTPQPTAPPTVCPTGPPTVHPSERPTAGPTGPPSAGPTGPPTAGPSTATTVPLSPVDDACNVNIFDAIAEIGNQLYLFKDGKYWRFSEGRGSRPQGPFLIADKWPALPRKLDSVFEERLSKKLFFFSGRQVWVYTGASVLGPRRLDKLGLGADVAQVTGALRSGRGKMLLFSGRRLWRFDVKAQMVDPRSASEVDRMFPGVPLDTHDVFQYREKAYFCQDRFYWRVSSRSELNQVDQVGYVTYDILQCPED

With `O=C(Nc1ccc(S(=O)(=O)C[C@@H](Cc2c[nH]c3ccccc23)C(=O)O)cc1)c1ccc(Br)cc1`, the IC50 is over 1000 nM in [1]; 2.6 nM in assay [2]; 2.7 nM in [3]; over 1000 nM in [4]; over 1000 nM in [5].
On to `NC(=O)C(Cc1c[nH]c2ccccc12)NC(=O)C(CCCc1ccccc1)CP(=O)(O)C(Cc1ccccc1)NC(=O)OCc1ccccc1` (stereo not given), for which the inhibition turned out to be 8% in [6] and 23% in assay [9]. Moreover, the IC50 in assay [7] is 2.5 nM. The compound further displayed a Ki in assay [8] of 5 nM.
In the case of `CNC(=O)C1CCCCNC(=O)CCC(C(=O)O)NC(CCc2ccccc2)C(=O)N1` (stereo not given), the Ki was found to be 8100 nM in [2], 17 nM in [7], 6600 nM in assay [3] and 2900 nM in [5].
For `O=C(O)C1Cc2ccccc2CN1S(=O)(=O)CCc1ccc(-c2ccc(Cl)cc2)cc1` (stereo not given), the IC50 in assay [7] was 10 nM; in assay [4] it was over 10000 nM.
On to `CC(C)CC(C(=O)N[C@H]1CCCCCCCCCCNC1=O)[C@H](O)C(=O)NO` (stereo not given in full), for which the IC50 was found to be 200 nM in assay [1]; 20 nM in [2]; 20 nM in assay [7]; 30 nM in [4]; 500 nM in assay [5].
